Measurements from ChEMBL document CHEMBL1201862, “PubChem BioAssay data set” (2004).
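Growth conditions: 96-well plates. Treatment: test compound, 48 hours, 5 concentrations. Analysis: linear interpolation between bracketing concentrations; unreached endpoints set to highest concentration. GI50 is the concentration that inhibits growth by half.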 The source made the active and inactive calls. Rule as the data show it: active = GI50 up to about 1.1 µM and inactive = higher.

Assays:
Assay in all cases: DTP human tumour cell line panel, 48 h
MOLT-4 = system: MOLT-4
A549 = system: A549
SF-268 = system: SF-268
COLO 205 = system: COLO 205
SNB-78 = system: SNB-78
EKVX = system: EKVX
UO-31 = system: UO-31
NCI-H522 = system: NCI-H522
UACC-62 = system: UACC-62
KM-20L2 = system: KM-20L2
HOP-62 = system: HOP-62
M19-MEL = system: M19-MEL
CCRF-CEM = system: CCRF-CEM
SN12C = system: SN12C
HCT-116 = system: HCT-116
OVCAR-5 = system: OVCAR-5
HOP-92 = system: HOP-92

Compound | GI50 (MOLT-4) | GI50 (A549) | GI50 (SF-268) | GI50 (COLO 205) | GI50 (SNB-78) | GI50 (EKVX) | GI50 (UO-31) | GI50 (NCI-H522) | GI50 (UACC-62) | GI50 (KM-20L2) | GI50 (HOP-62) | GI50 (M19-MEL) | GI50 (CCRF-CEM) | GI50 (SN12C) | GI50 (HCT-116) | GI50 (OVCAR-5) | GI50 (HOP-92)
COc1ccc(C(=O)Nc2ccccc2)cc1[N+](=O)[O-] | 97.5 µM (inactive) | > 100 µM (inactive) | > 100 µM (inactive) | > 100 µM (inactive) | > 100 µM (inactive) | 46.6 µM (inactive) | 81.5 µM (inactive) | 87.9 µM (inactive) | > 100 µM (inactive) | > 100 µM (inactive) | > 100 µM (inactive) | > 100 µM (inactive) | > 100 µM (inactive) | > 100 µM (inactive) |  |  | 
CC(=O)Nc1ccc(-c2nnc(SCC(=O)Nc3cccc(Cl)c3)o2)cc1 | 19.1 µM (inactive) | 18.7 µM (inactive) | 13.7 µM (inactive) | 16.6 µM (inactive) | > 100 µM (inactive) | 25.3 µM (inactive) | 27.7 µM (inactive) | 5.86 µM (inactive) | 15.4 µM (inactive) | 15.3 µM (inactive) | 19.7 µM (inactive) | 17.3 µM (inactive) | 6.18 µM (inactive) | 16 µM (inactive) | 12.9 µM (inactive) | 20.7 µM (inactive) | 
CC(=O)N1CCN(C=S)CC1 | > 100 µM (inactive) | > 100 µM (inactive) | > 100 µM (inactive) | > 100 µM (inactive) | > 100 µM (inactive) | > 100 µM (inactive) | > 100 µM (inactive) | > 100 µM (inactive) | > 100 µM (inactive) | > 100 µM (inactive) | > 100 µM (inactive) | > 100 µM (inactive) | > 100 µM (inactive) | > 100 µM (inactive) | > 100 µM (inactive) | > 100 µM (inactive) | > 100 µM (inactive)
CC(=O)NNc1nc(C)c(C(=O)NNC(=O)C(=O)Nc2c(C)cccc2C)s1 | 22.6 µM (inactive) | 42.4 µM (inactive) | 33.2 µM (inactive) | 31.8 µM (inactive) | 36.1 µM (inactive) | 37 µM (inactive) | 53.8 µM (inactive) | 16.1 µM (inactive) | 33.3 µM (inactive) | 35.2 µM (inactive) | > 100 µM (inactive) | 32.7 µM (inactive) | 32 µM (inactive) | > 100 µM (inactive) | 40.9 µM (inactive) | 81.3 µM (inactive) | 40.4 µM (inactive)
CN(C)C(=S)/N=c1\ss/c(=N\C(=S)N(C)C)n1Cc1ccco1 | > 100 µM (inactive) | > 100 µM (inactive) | > 100 µM (inactive) | > 100 µM (inactive) | > 100 µM (inactive) |  | > 100 µM (inactive) | > 100 µM (inactive) | > 100 µM (inactive) | > 100 µM (inactive) | > 100 µM (inactive) | > 100 µM (inactive) | > 100 µM (inactive) | > 100 µM (inactive) | > 100 µM (inactive) |  | 
N#CSCc1nc2ccc(Cl)cc2c(-c2ccccc2)[n+]1[O-] | 14.6 µM (inactive) | 33.8 µM (inactive) | 25.7 µM (inactive) | 60.1 µM (inactive) | 36.9 µM (inactive) | 23.2 µM (inactive) | 18.7 µM (inactive) |  | 19.2 µM (inactive) | 16.6 µM (inactive) | > 100 µM (inactive) | 31.8 µM (inactive) | 14.5 µM (inactive) | 20 µM (inactive) | 19.7 µM (inactive) | 21 µM (inactive) | 16 µM (inactive)
O=C1CC(O)C=C1Nc1ccc(Cl)cc1 (stereo not given) | 16.4 µM (inactive) | 5.81 µM (inactive) | 62.4 µM (inactive) | 9.95 µM (inactive) | 39.6 µM (inactive) | 27.7 µM (inactive) | 31.3 µM (inactive) | 11.2 µM (inactive) | 0.879 µM (active) | 0.708 µM (active) | 79.6 µM (inactive) | 25.2 µM (inactive) | 11.4 µM (inactive) | 62.5 µM (inactive) | 30.6 µM (inactive) | 90.8 µM (inactive) | 49.1 µM (inactive)
CCC(C)OC(=O)C1C2CCC(O2)C1C(=O)O (stereo not given) | > 87.1 µM (inactive) | > 60.7 µM (inactive) | > 51.2 µM (inactive) | > 44.8 µM (inactive) | > 100 µM (inactive) | > 100 µM (inactive) | > 100 µM (inactive) | > 100 µM (inactive) | > 100 µM (inactive) | > 44.9 µM (inactive) | > 100 µM (inactive) | > 60.7 µM (inactive) | > 100 µM (inactive) | > 100 µM (inactive) | > 40.6 µM (inactive) | > 100 µM (inactive) | > 66.4 µM (inactive)
COC(=O)CC(=O)OC | > 100 µM (inactive) | > 100 µM (inactive) | > 100 µM (inactive) | > 100 µM (inactive) | > 100 µM (inactive) | > 100 µM (inactive) | > 100 µM (inactive) |  | > 100 µM (inactive) | > 100 µM (inactive) | > 100 µM (inactive) | > 100 µM (inactive) | > 100 µM (inactive) | > 100 µM (inactive) | > 100 µM (inactive) | > 100 µM (inactive) | > 100 µM (inactive)
Cc1ccc(/C=C/C(=O)c2cccc3ccccc23)cc1 | 13.6 µM (inactive) | 16.7 µM (inactive) | 16.2 µM (inactive) | 20.5 µM (inactive) | 14.8 µM (inactive) | 17.8 µM (inactive) | 25 µM (inactive) | 17.1 µM (inactive) | 17.4 µM (inactive) | 15.8 µM (inactive) | 20.7 µM (inactive) | 21.2 µM (inactive) | 15.9 µM (inactive) | 14.3 µM (inactive) | 11.5 µM (inactive) | 14.4 µM (inactive) | 
CCOC(=O)c1[nH]c2c(OC)n[n+]([O-])cc2c1[N+](=O)[O-] | 31.9 µM (inactive) | 88.5 µM (inactive) | 32 µM (inactive) | 25.1 µM (inactive) | 19.8 µM (inactive) | 21.3 µM (inactive) | 22 µM (inactive) | 19.3 µM (inactive) | 19.5 µM (inactive) | 15.5 µM (inactive) | 56.8 µM (inactive) | 24.8 µM (inactive) | 26.1 µM (inactive) | 20.4 µM (inactive) | 19 µM (inactive) | 19.6 µM (inactive) | 
Clc1ccc(C2=Nc3ccccc3SC(c3ccc(Cl)c(Cl)c3)C2)c(Cl)c1 (stereo not given) | 4.9 µM (inactive) | 21 µM (inactive) | 13.2 µM (inactive) | 18.5 µM (inactive) | 18.3 µM (inactive) | 16.4 µM (inactive) | 14.4 µM (inactive) | 13.5 µM (inactive) | 15.2 µM (inactive) | 18.3 µM (inactive) | 12.6 µM (inactive) | 16 µM (inactive) | 3.11 µM (inactive) | 17.2 µM (inactive) | 11.4 µM (inactive) | 17.1 µM (inactive) | 13.8 µM (inactive)
C[n+]1c2ccccc2c(NC(CS)C(=O)O)c2ccccc21 (stereo not given) | 13.8 µM (inactive) | 22.6 µM (inactive) | 19.8 µM (inactive) | 30.1 µM (inactive) | 45.2 µM (inactive) | 24.4 µM (inactive) | 16.2 µM (inactive) | 20.3 µM (inactive) | 15.2 µM (inactive) | 29.4 µM (inactive) | 30.3 µM (inactive) | 27.4 µM (inactive) |  | 52 µM (inactive) | 13.5 µM (inactive) | 74.1 µM (inactive) | 20.2 µM (inactive)
CCCN(CCC)C(=O)c1c([N+](=O)[O-])cc(C(F)(F)F)cc1[N+](=O)[O-] | 52.6 µM (inactive) | 32.5 µM (inactive) | > 100 µM (inactive) | 15.4 µM (inactive) | 35.2 µM (inactive) | 52.5 µM (inactive) | > 100 µM (inactive) | 23.2 µM (inactive) | 17.9 µM (inactive) | 22.6 µM (inactive) | > 100 µM (inactive) | 13.7 µM (inactive) | 62.4 µM (inactive) | 40.9 µM (inactive) | 30.5 µM (inactive) | 65.5 µM (inactive) | 34.5 µM (inactive)
O=C1[C@@H]2C(c3cccc([N+](=O)[O-])c3)=NO[C@@H]2C(=O)N1c1ccc(Cc2ccc(N3C(=O)[C@H]4C(c5cccc([N+](=O)[O-])c5)=NO[C@H]4C3=O)cc2)cc1 | > 100 µM (inactive) |  | > 10 µM (inactive) | > 100 µM (inactive) | > 100 µM (inactive) |  | > 100 µM (inactive) | > 100 µM (inactive) | > 100 µM (inactive) | > 100 µM (inactive) | > 100 µM (inactive) | > 100 µM (inactive) | > 100 µM (inactive) | > 100 µM (inactive) | > 100 µM (inactive) | > 100 µM (inactive) | > 100 µM (inactive)
Clc1ccc(SCCCCCCCCCCSc2ccc(Cl)cc2)cc1 | > 100 µM (inactive) | > 73.8 µM (inactive) | > 100 µM (inactive) | > 100 µM (inactive) | > 100 µM (inactive) | > 70 µM (inactive) | > 100 µM (inactive) | > 100 µM (inactive) | > 100 µM (inactive) | > 63.7 µM (inactive) | > 76.2 µM (inactive) | > 100 µM (inactive) | > 100 µM (inactive) | > 100 µM (inactive) | > 100 µM (inactive) | > 61 µM (inactive) | > 100 µM (inactive)
CC1(C)C(=NNC(=O)C[N+](C)(C)C)C(C)(C)C1=NNC(=O)C[N+](C)(C)C | > 100 µM (inactive) | > 100 µM (inactive) | > 100 µM (inactive) | > 100 µM (inactive) | > 100 µM (inactive) | > 100 µM (inactive) | > 100 µM (inactive) | 82.4 µM (inactive) | > 100 µM (inactive) | > 100 µM (inactive) | > 100 µM (inactive) | > 100 µM (inactive) | > 100 µM (inactive) | > 100 µM (inactive) | > 100 µM (inactive) | > 100 µM (inactive) | > 100 µM (inactive)
